Molecules are shown by their SMILES. Where two headings read alike, the source gives them in different places. Positions of bridges follow the written chain, without caps; N, C: chain ends. Non-standard residues stand in square brackets, D forms with d. Residues, ends and D or L forms follow the SMILES beside them. *: point of attachment. Malonyl(2,2-Me2,histaminyl) = CC(C)(C(=O)NCCc1cnc[nH]1)C(=O)*; Ala(1H-tetrazol-5-yl) = N[C@@H](Cc1nnn[nH]1)C(=O)O; Nle = CCCC[C@H](N)C(=O)O; Aib = CC(C)(N)C(=O)O

The values that follow come from patent US20240270809A1, “ORAL GLP RECEPTOR AGONISTS” (priority 2020, published 2024).

One data set deals with T1, human GLP2 receptor (Homo sapiens, UniProt O95838).
T1 construct: expressed in transfected cells; host or cells: HEK cells, BacMam virus transduction
T1 sequence (O95838 1-553): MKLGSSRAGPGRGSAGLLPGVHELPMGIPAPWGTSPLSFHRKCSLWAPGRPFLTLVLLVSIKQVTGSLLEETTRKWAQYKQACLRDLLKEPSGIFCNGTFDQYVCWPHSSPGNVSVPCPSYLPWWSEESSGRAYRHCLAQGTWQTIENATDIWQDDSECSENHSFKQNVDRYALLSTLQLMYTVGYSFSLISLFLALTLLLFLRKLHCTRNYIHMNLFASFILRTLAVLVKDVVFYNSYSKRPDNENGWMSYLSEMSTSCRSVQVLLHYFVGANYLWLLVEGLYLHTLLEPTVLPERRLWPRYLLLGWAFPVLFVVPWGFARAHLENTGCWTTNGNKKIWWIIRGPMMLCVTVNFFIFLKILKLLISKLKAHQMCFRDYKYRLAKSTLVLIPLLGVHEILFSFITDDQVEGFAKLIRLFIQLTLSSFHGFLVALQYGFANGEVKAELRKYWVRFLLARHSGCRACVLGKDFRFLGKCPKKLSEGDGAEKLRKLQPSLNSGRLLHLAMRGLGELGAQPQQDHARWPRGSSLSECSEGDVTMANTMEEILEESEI
In words: cAMP accumulation assay, functional agonism of human GLP2 receptor. The class given is cell-based. Particulars: HEK cells infected with human GLP2 receptor BacMam virus, HTRF cAMP; for Emax: HEK293, read-out: Human GLP-2R agonist cAMP Emax; for EC50: read-out: Human GLP-2R agonist cAMP pEC50 (converted). The method in brief: (§1)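 cAMP read by HTRF detection reagents in lysis buffer following 45 min agonist exposure at 37 °C. Cells: frozen HEK transduced for 24 h with GLP1 or GLP2 receptor BacMam, suspended in HBSS plus 0.5 mM IBMX.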
A general note: Changes in cAMP serve as a functional read-out for many G protein-coupled receptors.

For another data set, the target named is T2, human GLP1 receptor (Homo sapiens, UniProt P43220).
T2 construct: expressed in transfected cells; host or cells: HEK cells, BacMam virus transduction
T2 sequence (P43220 24-463): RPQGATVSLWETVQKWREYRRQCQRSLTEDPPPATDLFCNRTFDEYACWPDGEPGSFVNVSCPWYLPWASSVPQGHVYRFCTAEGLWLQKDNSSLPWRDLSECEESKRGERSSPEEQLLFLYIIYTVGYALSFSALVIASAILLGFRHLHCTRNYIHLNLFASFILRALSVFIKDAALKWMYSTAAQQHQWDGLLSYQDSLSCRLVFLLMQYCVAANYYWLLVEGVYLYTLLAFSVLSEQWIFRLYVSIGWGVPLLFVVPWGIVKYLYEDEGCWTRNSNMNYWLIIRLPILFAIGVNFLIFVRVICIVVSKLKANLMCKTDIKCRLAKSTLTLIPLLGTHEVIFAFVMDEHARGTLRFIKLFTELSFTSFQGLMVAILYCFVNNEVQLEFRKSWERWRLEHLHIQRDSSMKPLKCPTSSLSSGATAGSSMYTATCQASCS
As to the kind of experiment: cAMP accumulation assay, functional agonism of human GLP1 receptor. Type of data set: cell-based. Particulars: HEK cells infected with human GLP1 receptor BacMam virus, HTRF cAMP; for Emax: HEK293, read-out: Human GLP-1R agonist cAMP Emax; for EC50: read-out: Human GLP-1R agonist cAMP pEC50 (converted). The method, boiled down:
as §1

The target in a further data set is T3, mouse GLP2 receptor (Mus musculus, UniProt Q5IXF8).
T3 construct: expressed in transfected cells; host or cells: HEK cells, transient transfection with GeneJuice
T3 sequence (Q5IXF8 1-512): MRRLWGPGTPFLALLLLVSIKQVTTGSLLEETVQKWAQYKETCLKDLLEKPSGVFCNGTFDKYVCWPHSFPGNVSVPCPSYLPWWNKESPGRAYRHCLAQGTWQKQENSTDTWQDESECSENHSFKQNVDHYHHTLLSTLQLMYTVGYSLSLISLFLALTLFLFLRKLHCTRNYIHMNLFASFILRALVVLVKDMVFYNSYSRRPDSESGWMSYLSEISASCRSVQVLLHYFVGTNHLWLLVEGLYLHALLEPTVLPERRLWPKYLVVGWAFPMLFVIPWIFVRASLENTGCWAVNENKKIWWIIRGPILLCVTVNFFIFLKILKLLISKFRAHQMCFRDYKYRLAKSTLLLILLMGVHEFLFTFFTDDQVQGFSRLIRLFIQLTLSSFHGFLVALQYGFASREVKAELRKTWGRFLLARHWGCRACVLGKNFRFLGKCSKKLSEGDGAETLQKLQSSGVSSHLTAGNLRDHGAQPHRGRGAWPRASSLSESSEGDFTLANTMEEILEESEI
As to the kind of experiment: cAMP accumulation assay, functional agonism of mouse GLP2 receptor. Type of data set: cell-based. The method in brief: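 pEC50 values come from four-parameter fits of HTRF cAMP signal, read after lysis and 1 h RT incubation. Compounds were incubated 45 min at 37 °C with previously frozen, transiently transfected HEK cells (8000/well) in HBSS containing 0.5 mM IBMX.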

A short description of data set [1]: Stability of peptides in Fasted-State Simulated Intestinal Fluid (FaSSIF). Type of data set: in vitro ADME. Particulars: FaSSIF with 10 mg/ml pancreatin; t=30 mins, 37° C., pH 6.5, 10 mg/ml pancreatin.
In another data set the target is T4, mouse GLP1 receptor (Mus musculus, UniProt O35659).
T4 construct: expressed in transfected cells; host or cells: HEK cells, transient transfection with GeneJuice
T4 sequence (O35659 22-463): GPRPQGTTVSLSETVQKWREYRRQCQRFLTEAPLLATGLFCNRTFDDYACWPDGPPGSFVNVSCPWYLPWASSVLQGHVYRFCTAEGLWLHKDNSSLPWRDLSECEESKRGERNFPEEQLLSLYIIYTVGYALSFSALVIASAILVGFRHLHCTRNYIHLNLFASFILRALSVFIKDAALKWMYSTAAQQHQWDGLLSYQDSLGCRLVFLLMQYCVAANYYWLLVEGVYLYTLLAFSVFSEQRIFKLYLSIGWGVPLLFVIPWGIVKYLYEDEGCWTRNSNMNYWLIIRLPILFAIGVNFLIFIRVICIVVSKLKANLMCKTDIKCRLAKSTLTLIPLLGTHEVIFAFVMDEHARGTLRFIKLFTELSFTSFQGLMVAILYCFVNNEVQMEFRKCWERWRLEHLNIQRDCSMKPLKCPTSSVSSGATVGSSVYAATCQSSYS
As to the kind of experiment: cAMP accumulation assay, functional agonism of mouse GLP1 receptor. Type of data set: cell-based.

[2] abbreviates: HEK293, HEK cells transiently transfected with mouse GLP2 receptor, HTRF cAMP, read-out: Mouse GLP-2R agonist cAMP Emax.
[3] abbreviates: HEK cells transiently transfected with mouse GLP2 receptor, HTRF cAMP, read-out: Mouse GLP-2R agonist cAMP pEC50 (converted).
Where [4] appears, read: HEK293, HEK cells transiently transfected with mouse GLP1 receptor, HTRF cAMP, read-out: Mouse GLP-1R agonist cAMP Emax.
The mark [5] stands for this setting: HEK cells transiently transfected with mouse GLP1 receptor, HTRF cAMP, read-out: Mouse GLP-1R agonist cAMP pEC50 (converted).

Description for mouse GLP1 receptor: CAMP production upon agonist stimulation of mouse GLP2 or GLP1 receptors was assessed utilizing HiRange cAMP kit (Cisbio). In brief, HEK cells were transiently transfected for 24 hours with cDNA using GeneJuice Transfection reagent (EMD Millipore) and frozen at −80° C. for later use in the assay. […] Cells were prepared in the assay buffer (HBSS (Lonza) supplemented with 0.5 mM IBMX (Tocris)). After 45 min incubation at 37° C., the reaction was stopped by addition of the HTRF detection reagents in the lysis buffer provided in the kit. Following 1-hour incubation at RT, plates were read on Pherastar FS (BMG Labtech, Inc.) using standard HTRF settings. Dotmatics Studies software was used for calculation of pEC50 values by fitting data to a four-parameter concentration response curve.

Consider `CCCC[C@@H]1NC(=O)[C@H](CCC(=O)O)NC(=O)[C@@H](NC(=O)[C@H](CO)NC(=O)[C@H](Cc2ccccc2)NC(=O)[C@H](CO)NC(=O)CNC(=O)[C@H](Cc2nn[nH]n2)NC(=O)C(C)(C)C(=O)NCCc2c[nH]cn2)CCCCNC(=O)C[C@@H](C(=O)N[C@H](C(=O)N[C@@H](CC(C)C)C(=O)N[C@@H](CC(=O)O)C(=O)N[C@H]2CCC(=O)NCCCC[C@@H](C(=O)N[C@@H](CC(=O)O)C(=O)N[C@@H](Cc3ccccc3)C(=O)N[C@H](C(=O)N[C@@H](CC(N)=O)C(=O)N[C@@H](Cc3c[nH]c4ccccc34)C(=O)N[C@@H](CC(C)C)C(=O)N[C@H](C(=O)N[C@@H](CCC(N)=O)C(=O)N[C@H]3CCC(=O)NCCCC[C@@H](C(N)=O)NC(=O)[C@H]([C@@H](C)O)NC(=O)[C@H]([C@@H](C)CC)NC(=O)[C@H](CCCCN)NC3=O)[C@@H](C)CC)[C@@H](C)CC)NC(=O)[C@H](C)NC(=O)[C@H](C)NC(=O)[C@H](CCCCN)NC2=O)[C@@H](C)CC)NC(=O)[C@@H](Cc2ccccc2)NC1=O` [Example 22] ({Malonyl(2,2-Me2,histaminyl)}-[Ala(1H-tetrazol-5-yl)]GSFSKE[Nle][dF]DILDEKAAKDFINWLIQEKITK-NH2; lactam 6-10, 14-18, 27-31 (inferred); C-terminus assumed), for which the Emax (usually the size of the effect at its maximum, as opposed to the concentration needed) at human GLP2 receptor is 104%; at human GLP1 receptor, 92.7%; on mouse GLP2 receptor (setting [2]), 94.5%. The EC50 on human GLP2 receptor was 0.00794 nM; on human GLP1 receptor, 0.398 nM; at mouse GLP2 receptor (setting [3]) it was 1.58 nM. Besides, the fraction remaining (in general, what is left of the initial amount, in per cent) at 0.5 h in data set [1] is 6.8%.

Turning to `CCCC[C@H](NC(=O)[C@H](CCC(=O)O)NC(=O)[C@H](CC(=O)O)NC(=O)[C@H](CO)NC(=O)[C@H](Cc1ccccc1)NC(=O)[C@H](CO)NC(=O)CNC(=O)[C@H](CC(=O)O)NC(=O)C(C)(C)NC(=O)[C@@H](N)Cc1c[nH]cn1)C(=O)N[C@H](Cc1ccccc1)C(=O)N[C@H](C(=O)N[C@H](C(=O)N[C@@H](CC(C)C)C(=O)N[C@@H](CC(=O)O)C(=O)N[C@H]1CC(=O)NCCCC[C@@H](C(=O)N[C@@H](CC(=O)O)C(=O)N[C@@H](Cc2ccccc2)C(=O)N[C@H](C(=O)N[C@@H](CC(N)=O)C(=O)N[C@@H](Cc2c[nH]c3ccccc23)C(=O)N[C@@H](CC(C)C)C(=O)N[C@H](C(=O)N[C@@H](CCC(N)=O)C(=O)N[C@H](C(=O)N[C@@H](CCCCN)C(=O)N[C@H](C(=O)N[C@H](C(=O)N[C@@H](CC(=O)O)C(N)=O)[C@@H](C)O)[C@@H](C)CC)[C@@H](C)O)[C@@H](C)CC)[C@@H](C)CC)NC(=O)[C@H](C)NC(=O)[C@H](C)NC(=O)[C@H](CCCCN)NC1=O)[C@@H](C)CC)[C@@H](C)O` [Example 92] (H-H[Aib]DGSFSDE[Nle][dF]TILDDKAAKDFINWLIQTKITD-NH2; lactam 16-20; N-terminus and C-terminus assumed), the Emax at human GLP2 receptor turned out to be 99.3%; at human GLP1 receptor, 96.5%; at mouse GLP2 receptor (setting [2]) it was 98.9%; on mouse GLP1 receptor (setting [4]), 94.8%. Moreover, the EC50 on human GLP2 receptor is 0.002 nM; at human GLP1 receptor, 10 nM; at mouse GLP2 receptor (setting [3]), 0.0126 nM; on mouse GLP1 receptor (setting [5]), 10 nM.

Take `CCCC[C@H](NC(=O)[C@H](CCC(=O)O)NC(=O)[C@H](CC(=O)O)NC(=O)[C@H](CO)NC(=O)[C@H](Cc1ccccc1)NC(=O)[C@H](CO)NC(=O)CNC(=O)[C@H](Cc1nn[nH]n1)NC(=O)C(C)(C)C(=O)NCCc1c[nH]cn1)C(=O)N[C@H](Cc1ccccc1)C(=O)N[C@H](C(=O)N[C@H](C(=O)N[C@@H](CC(C)C)C(=O)N[C@@H](CC(=O)O)C(=O)N[C@H]1CC(=O)NCCCC[C@@H](C(=O)N[C@@H](CC(=O)O)C(=O)N[C@@H](Cc2ccccc2)C(=O)N[C@H](C(=O)N[C@@H](CC(N)=O)C(=O)N[C@@H](Cc2c[nH]c3ccccc23)C(=O)N[C@@H](CC(C)C)C(=O)N[C@H](C(=O)N[C@@H](CCC(N)=O)C(=O)N[C@H](C(=O)N[C@@H](CCCCN)C(=O)N[C@H](C(=O)N[C@H](C(=O)N[C@@H](Cc2ccccc2)C(N)=O)[C@@H](C)O)[C@@H](C)CC)[C@@H](C)O)[C@@H](C)CC)[C@@H](C)CC)NC(=O)[C@H](C)NC(=O)[C@H](C)NC(=O)[C@H](CCCCN)NC1=O)[C@@H](C)CC)[C@@H](C)O` [Example 95] ({Malonyl(2,2-Me2,histaminyl)}-[Ala(1H-tetrazol-5-yl)]GSFSDE[Nle][dF]TILDDKAAKDFINWLIQTKITF-NH2; lactam 14-18; C-terminus assumed): the Emax on human GLP2 receptor stood at 102%; at human GLP1 receptor, 97%; at mouse GLP2 receptor (setting [2]), 102%; at mouse GLP1 receptor (setting [4]), 94.7%. For the same molecule, the EC50 on human GLP2 receptor is 0.00794 nM; at human GLP1 receptor it was 3.98 nM; on mouse GLP2 receptor (setting [3]), 0.00794 nM; at mouse GLP1 receptor (setting [5]), 5.01 nM.

For `CCCC[C@H](NC(=O)[C@H](CCC(=O)O)NC(=O)[C@H](CC(=O)O)NC(=O)[C@H](CO)NC(=O)[C@H](Cc1ccccc1)NC(=O)[C@H](CO)NC(=O)CNC(=O)[C@H](Cc1nn[nH]n1)NC(=O)C(C)(C)C(=O)NCCc1c[nH]cn1)C(=O)N[C@H](Cc1ccccc1)C(=O)N[C@H](C(=O)N[C@H](C(=O)N[C@@H](CC(C)C)C(=O)N[C@@H](CC(=O)O)C(=O)N[C@H]1CCC(=O)NCCCC[C@@H](C(=O)N[C@@H](CC(=O)O)C(=O)N[C@@H](Cc2ccccc2)C(=O)N[C@H](C(=O)N[C@@H](CC(N)=O)C(=O)N[C@@H](Cc2c[nH]c3ccccc23)C(=O)N[C@@H](CC(C)C)C(=O)N[C@H](C(=O)N[C@@H](CCC(N)=O)C(=O)N[C@H](C(=O)N[C@@H](CCCCN)C(=O)N[C@H](C(=O)N[C@H](C(=O)N[C@@H](Cc2ccccc2)C(N)=O)[C@@H](C)O)[C@@H](C)CC)[C@@H](C)O)[C@@H](C)CC)[C@@H](C)CC)NC(=O)[C@H](C)NC(=O)[C@H](C)NC(=O)[C@H](CCCCN)NC1=O)[C@@H](C)CC)[C@@H](C)O` [Example 96] ({Malonyl(2,2-Me2,histaminyl)}-[Ala(1H-tetrazol-5-yl)]GSFSDE[Nle][dF]TILDEKAAKDFINWLIQTKITF-NH2; lactam 14-18), the Emax turned out to be 101% at human GLP2 receptor; 96.4% on human GLP1 receptor; 101% at mouse GLP2 receptor (HEK293, read-out: Mouse GLP-2R agonist cAMP Emax); 96.1% on mouse GLP1 receptor (HEK293, read-out: Mouse GLP-1R agonist cAMP Emax). Moreover, the EC50 on human GLP2 receptor was 0.00631 nM; at human GLP1 receptor, 0.501 nM; at mouse GLP2 receptor, 0.794 nM; on mouse GLP1 receptor, 0.794 nM.
